Source: US8959984B2, “Proteome-wide quantification of small molecule binding to cellular target proteins” (priority 2007, dated 2015)
Read-outs that look alike come from different tables or passages of the source.

Experiments:
BUB1 = biological target: T1, BUB1 (Homo sapiens, UniProt O43683); test: binding to immobilized V16742 (IVA1/IVA2, HeLa lysate, MS)
T1 construct: endogenous in cells; host or cells: HeLa S3

MASTL = biological target: T2, MASTL (Homo sapiens, UniProt Q96GX5); test: as above
T2 construct: endogenous in cells; host or cells: HeLa S3
T2 sequence (Q96GX5 1-879): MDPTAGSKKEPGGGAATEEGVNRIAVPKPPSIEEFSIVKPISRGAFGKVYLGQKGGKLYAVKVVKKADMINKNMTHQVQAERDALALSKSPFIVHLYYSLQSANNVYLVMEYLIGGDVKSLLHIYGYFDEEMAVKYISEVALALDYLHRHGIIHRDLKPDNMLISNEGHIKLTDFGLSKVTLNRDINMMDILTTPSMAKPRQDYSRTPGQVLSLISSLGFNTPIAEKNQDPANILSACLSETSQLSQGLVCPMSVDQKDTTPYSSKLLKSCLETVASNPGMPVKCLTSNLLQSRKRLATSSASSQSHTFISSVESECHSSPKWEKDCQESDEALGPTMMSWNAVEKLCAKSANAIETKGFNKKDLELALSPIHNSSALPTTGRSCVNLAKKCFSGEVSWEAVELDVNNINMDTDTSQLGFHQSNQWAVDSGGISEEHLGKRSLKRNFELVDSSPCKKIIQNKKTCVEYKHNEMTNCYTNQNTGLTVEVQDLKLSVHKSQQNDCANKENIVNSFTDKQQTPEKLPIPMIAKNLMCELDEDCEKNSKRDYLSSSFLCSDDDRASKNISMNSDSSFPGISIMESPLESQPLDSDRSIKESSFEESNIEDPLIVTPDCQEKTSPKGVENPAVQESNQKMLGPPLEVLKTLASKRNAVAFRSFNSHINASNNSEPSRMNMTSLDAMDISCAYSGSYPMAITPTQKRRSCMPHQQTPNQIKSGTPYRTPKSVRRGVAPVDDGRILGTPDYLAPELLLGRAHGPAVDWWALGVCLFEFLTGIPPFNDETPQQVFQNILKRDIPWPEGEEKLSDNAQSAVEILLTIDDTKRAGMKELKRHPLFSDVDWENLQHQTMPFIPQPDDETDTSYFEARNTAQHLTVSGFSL

PHKg2 = biological target: T3, PHKg2 (Homo sapiens, UniProt P15735); test: as above
T3 construct: endogenous in cells; host or cells: HeLa S3
T3 sequence (P15735 1-406): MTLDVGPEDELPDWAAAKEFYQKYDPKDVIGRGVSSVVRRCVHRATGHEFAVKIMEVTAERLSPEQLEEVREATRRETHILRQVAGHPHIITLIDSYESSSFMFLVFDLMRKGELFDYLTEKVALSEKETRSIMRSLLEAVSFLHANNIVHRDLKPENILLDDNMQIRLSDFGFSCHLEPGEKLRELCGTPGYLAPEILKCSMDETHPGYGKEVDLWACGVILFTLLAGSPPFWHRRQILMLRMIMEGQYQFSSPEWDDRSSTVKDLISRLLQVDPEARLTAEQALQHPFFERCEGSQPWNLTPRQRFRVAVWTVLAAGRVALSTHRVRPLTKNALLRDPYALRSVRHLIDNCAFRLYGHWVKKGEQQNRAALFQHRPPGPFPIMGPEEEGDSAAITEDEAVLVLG

Sepiapterin reductase = Sepiapterin reductase (Homo sapiens, UniProt P35270); test: as above
Sepiapterin reductase, sequence (P35270 whole entry): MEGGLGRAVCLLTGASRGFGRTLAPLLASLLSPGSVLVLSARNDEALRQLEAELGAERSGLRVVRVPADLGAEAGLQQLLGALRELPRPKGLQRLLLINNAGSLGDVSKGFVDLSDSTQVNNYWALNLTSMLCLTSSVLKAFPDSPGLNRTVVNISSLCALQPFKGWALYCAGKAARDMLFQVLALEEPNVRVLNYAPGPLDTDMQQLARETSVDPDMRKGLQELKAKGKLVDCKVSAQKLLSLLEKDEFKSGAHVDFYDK
Method: Using the three populations of SILAC-labelled cells and the three different inhibitor resins, two parallel experiments termed as IVA1 (In Vitro Association, Setting 1) and IVA2 (In Vitro Association, Setting 2) were performed. […] In IVA2, SILAC encoded HeLa cells lysates were subjected to two parallel rounds of consecutive affinity purification at the highest ligand density where the supernatant left behind after the first IVA was used for the second round of IVA. An additional incubation of Hela cell lysate with control beads devoid of immobilized inhibitor was also performed to distinguish background binders.
A common IPI identifier template was assigned to peptides based on the MASCOT html-output file for the IVA2 setting in first experiment. The proteins hits identified based on unique peptides were filtered for mass error and MASCOT score. Eventually, the hits identified in both first and second IVA2 experiments were quantified for IVA2 setting of first experiment by MSQuant. […] A next round of sorting was done to filter out protein hits that are less than 50% enriched in the IVA second round compared to IVA first round. This is because at enrichment below 50%, there could be significant errors in deducing kd values for the corresponding targets. […] The same set of targets was also quantified in IVA2 and IVA1 settings of an independent second experiment.

SNRPG = SNRPG (Homo sapiens, UniProt P62308)
SNRPG, sequence (P62306 whole entry): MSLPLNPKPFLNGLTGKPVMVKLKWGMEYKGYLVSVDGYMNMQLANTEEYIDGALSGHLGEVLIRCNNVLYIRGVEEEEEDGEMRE
SNRPG, sequence (P62304 whole entry, further chain): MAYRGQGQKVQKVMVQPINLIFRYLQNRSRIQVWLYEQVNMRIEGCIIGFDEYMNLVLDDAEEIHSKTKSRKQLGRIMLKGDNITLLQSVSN
SNRPG, sequence (P62308 whole entry): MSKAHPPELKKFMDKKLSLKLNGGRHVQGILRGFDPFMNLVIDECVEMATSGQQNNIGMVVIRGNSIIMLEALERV

CK1e (CSNK1E) = CK1e (CSNK1E) (Homo sapiens, UniProt P49674)
CK1e (CSNK1E), sequence (P49674 whole entry): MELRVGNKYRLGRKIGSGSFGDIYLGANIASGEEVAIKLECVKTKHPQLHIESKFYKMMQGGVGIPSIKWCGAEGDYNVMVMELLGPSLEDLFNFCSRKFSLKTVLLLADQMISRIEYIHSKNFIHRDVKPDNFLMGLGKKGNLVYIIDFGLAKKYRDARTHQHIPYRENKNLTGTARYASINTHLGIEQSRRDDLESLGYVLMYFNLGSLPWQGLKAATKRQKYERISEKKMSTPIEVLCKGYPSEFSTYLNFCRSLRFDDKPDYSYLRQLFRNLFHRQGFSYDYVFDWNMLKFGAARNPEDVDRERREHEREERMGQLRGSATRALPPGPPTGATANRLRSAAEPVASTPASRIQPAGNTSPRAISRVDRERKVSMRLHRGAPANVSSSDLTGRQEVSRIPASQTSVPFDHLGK

CK1a = CK1a (Homo sapiens, UniProt P48729); test: binding to immobilized V16742 (IVA1/IVA2, HeLa lysate, MS)
CK1a, sequence (P48729 whole entry): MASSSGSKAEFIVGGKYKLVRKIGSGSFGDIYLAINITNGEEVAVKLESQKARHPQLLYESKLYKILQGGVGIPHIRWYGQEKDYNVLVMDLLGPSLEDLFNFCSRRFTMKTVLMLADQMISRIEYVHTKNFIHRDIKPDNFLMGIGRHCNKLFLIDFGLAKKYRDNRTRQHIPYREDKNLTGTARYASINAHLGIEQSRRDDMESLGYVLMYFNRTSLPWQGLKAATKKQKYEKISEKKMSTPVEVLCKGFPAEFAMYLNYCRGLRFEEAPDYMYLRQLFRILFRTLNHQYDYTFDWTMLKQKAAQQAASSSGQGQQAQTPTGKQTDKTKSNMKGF

GSK3A = GSK3A (Homo sapiens, UniProt P49840); test: as above
GSK3A, sequence (P49840 whole entry): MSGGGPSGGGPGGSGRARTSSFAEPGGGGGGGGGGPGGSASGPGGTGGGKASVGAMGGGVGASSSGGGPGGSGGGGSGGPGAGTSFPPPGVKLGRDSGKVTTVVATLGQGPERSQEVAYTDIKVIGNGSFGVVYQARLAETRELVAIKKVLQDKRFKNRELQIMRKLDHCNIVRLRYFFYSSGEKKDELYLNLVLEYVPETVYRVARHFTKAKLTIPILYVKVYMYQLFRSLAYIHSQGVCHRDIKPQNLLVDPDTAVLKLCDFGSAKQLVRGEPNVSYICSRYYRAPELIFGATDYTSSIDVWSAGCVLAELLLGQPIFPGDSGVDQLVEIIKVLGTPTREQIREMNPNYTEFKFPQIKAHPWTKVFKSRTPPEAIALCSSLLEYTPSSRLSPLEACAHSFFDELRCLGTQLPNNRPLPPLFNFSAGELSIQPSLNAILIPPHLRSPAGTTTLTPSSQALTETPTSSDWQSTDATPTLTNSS

[1] = single Kd value, obtained from only one experiment

T1 sequence (O43683 whole entry): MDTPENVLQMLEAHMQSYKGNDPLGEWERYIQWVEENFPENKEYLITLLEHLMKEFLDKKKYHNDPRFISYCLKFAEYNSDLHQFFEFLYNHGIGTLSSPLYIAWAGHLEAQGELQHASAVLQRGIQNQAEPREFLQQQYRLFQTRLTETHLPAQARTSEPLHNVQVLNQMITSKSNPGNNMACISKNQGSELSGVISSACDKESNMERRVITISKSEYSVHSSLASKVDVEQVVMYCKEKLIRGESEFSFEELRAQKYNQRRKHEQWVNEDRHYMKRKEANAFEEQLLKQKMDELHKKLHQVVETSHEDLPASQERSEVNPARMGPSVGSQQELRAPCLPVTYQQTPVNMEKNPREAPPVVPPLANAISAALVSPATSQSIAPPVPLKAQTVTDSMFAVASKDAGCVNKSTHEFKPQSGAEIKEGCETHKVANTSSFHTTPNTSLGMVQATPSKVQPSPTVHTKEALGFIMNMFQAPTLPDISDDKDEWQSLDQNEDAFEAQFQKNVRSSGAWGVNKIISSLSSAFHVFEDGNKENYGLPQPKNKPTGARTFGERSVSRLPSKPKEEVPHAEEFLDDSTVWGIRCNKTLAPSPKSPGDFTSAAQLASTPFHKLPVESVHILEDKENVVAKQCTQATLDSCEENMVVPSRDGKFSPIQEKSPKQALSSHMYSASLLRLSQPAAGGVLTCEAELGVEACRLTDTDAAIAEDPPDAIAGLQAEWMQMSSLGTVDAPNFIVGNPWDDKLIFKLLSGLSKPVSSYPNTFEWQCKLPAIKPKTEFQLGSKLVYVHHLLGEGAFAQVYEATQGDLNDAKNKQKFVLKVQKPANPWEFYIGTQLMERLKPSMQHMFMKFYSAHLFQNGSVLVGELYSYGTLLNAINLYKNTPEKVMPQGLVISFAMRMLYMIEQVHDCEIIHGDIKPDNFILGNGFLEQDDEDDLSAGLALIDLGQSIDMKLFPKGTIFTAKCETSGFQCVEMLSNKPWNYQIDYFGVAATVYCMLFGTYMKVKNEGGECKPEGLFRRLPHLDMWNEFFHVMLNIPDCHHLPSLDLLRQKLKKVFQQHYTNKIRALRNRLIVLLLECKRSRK

For `CC(C)n1c(=O)ccc2cnc(Nc3ccc(OCCN)cc3)nc21` [V16742], the “Percent bound at various 16742 conc” value (BUB1; Experiment 1, 1.87 μM 16742) was 2.46%, the “Percent bound at various 16742 conc” value (BUB1; Experiment 1, 8.74 μM 16742) was 11.95% and the “Percent bound at various 16742 conc” value (BUB1; Experiment 1, 52 μM 16742) was 50.46%. For the same molecule, the “Percent bound at various 16742 conc” value (BUB1; Experiment 2, 52 μM 16742) was 47.87%, the Kd (BUB1; [1]) was 53.4 µM and the “Percent bound at various 16742 conc” value (MASTL; Experiment 1, 1.87 μM 16742) was 0.55%. The “Percent bound at various 16742 conc” value (MASTL; Experiment 1, 8.74 μM 16742) was 9.59%, the “Percent bound at various 16742 conc” value (MASTL; Experiment 1, 52 μM 16742) was 51.63% and the “Percent bound at various 16742 conc” value (MASTL; Experiment 2, 52 μM 16742) was 62.29%. For the same molecule, the Kd (MASTL; [1]) was 53.8 µM, the “Percent bound at various 16742 conc” value (PHKg2; Experiment 1, 52 μM 16742) was 59.42% and the Kd (PHKg2; Experiment 2) was 146 µM. For the same molecule, the “Percent bound at various 16742 conc” value (PHKg2; Experiment 2, 1.87 μM 16742) was 1.94%, the “Percent bound at various 16742 conc” value (PHKg2; Experiment 2, 8.74 μM 16742) was 2.29% and the “Percent bound at various 16742 conc” value (PHKg2; Experiment 2, 52 μM 16742) was 27.11%. For the same molecule, the Kd (Sepiapterin reductase) was 58.6 µM, the Kd (Sepiapterin reductase; Kd Avg, Sepiapterin reductase, average of two experiments) was 93 µM and the Kd (Sepiapterin reductase; Kd, Sepiapterin reductase, Experiment 2) was 127 µM. For the same molecule, the Kd (Sepiapterin reductase; Kd, Sepiapterin reductase, immobilized V16742) was 93 µM, the “Percent bound at various 16742 conc” value (Sepiapterin reductase; Sepiapterin reductase, Experiment 1, 1.87 μM 16742) was 2.16% and the “Percent bound at various 16742 conc” value (Sepiapterin reductase; Sepiapterin reductase, Experiment 1, 8.74 μM 16742) was 2.59%. For the same molecule, the “Percent bound at various 16742 conc” value (Sepiapterin reductase; Sepiapterin reductase, Experiment 1, 52 μM 16742) was 51.84%, the “Percent bound at various 16742 conc” value (Sepiapterin reductase; Sepiapterin reductase, Experiment 2, 1.87 μM 16742) was 1.04% and the “Percent bound at various 16742 conc” value (Sepiapterin reductase; Sepiapterin reductase, Experiment 2, 8.74 μM 16742) was 1.52%. The “Percent bound at various 16742 conc” value (Sepiapterin reductase; Sepiapterin reductase, Experiment 2, 52 μM 16742) was 30.43%.

With `COc1cc2ncnc(Nc3ccc(F)c(Cl)c3)c2cc1OCCCN1CCOCC1` [gefitinib] the “rAVERAGE (10 nM/0 nM Gef.)” value (SNRPG) was 0.65, the “rAVERAGE (100 nM/0 nM Gef.)” value (SNRPG) was 1.09 and the “rAVERAGE (1000 nM/0 nM Gef.)” value (SNRPG) was 0.72. The “rAVERAGE (10000 nM/0 nM Gef.)” value (SNRPG) was 0.89, the “rAVERAGE (10 nM/0 nM Gef.)” value (CK1e (CSNK1E)) was 0.80 and the “rAVERAGE (100 nM/0 nM Gef.)” value (CK1e (CSNK1E)) was 1.00. The “rAVERAGE (1000 nM/0 nM Gef.)” value (CK1e (CSNK1E)) was 0.84 and the “rAVERAGE (10000 nM/0 nM Gef.)” value (CK1e (CSNK1E)) was 0.59.

For `CC(C)n1c(=O)ccc2cnc(Nc3ccc(OCCN)cc3)nc21` [compound 16742], the “Percent bound at 1.87 μM 16742 conc” value (CK1a; EXPERIMENT 1) was 6.51%, the “Percent bound at 8.74 μM 16742 conc” value (CK1a; EXPERIMENT 1) was 31.78% and the “Percent bound at 52 μM 16742 conc” value (CK1a; EXPERIMENT 1) was 60.94%. For the same molecule, the Kd (CK1a; EXPERIMENT 1, read-out: Kd) was 20.8 µM, the “Percent bound at 1.87 μM 16742 conc” value (CK1a; EXPERIMENT 2) was 5.11% and the “Percent bound at 8.74 μM 16742 conc” value (CK1a; EXPERIMENT 2) was 34.46%. The “Percent bound at 52 μM 16742 conc” value (CK1a; EXPERIMENT 2) was 83.66%, the Kd (CK1a; EXPERIMENT 2, read-out: Kd) was 16.8 µM and the Kd (CK1a; read-out: Kd Avg) was 18.8 µM. For the same molecule, the “Percent bound at 1.87 μM 16742 conc” value (GSK3A; EXPERIMENT 1) was 7.34%, the “Percent bound at 8.74 μM 16742 conc” value (GSK3A; EXPERIMENT 1) was 35.37% and the “Percent bound at 52 μM 16742 conc” value (GSK3A; EXPERIMENT 1) was 84.48%. For the same molecule, the Kd (GSK3A; EXPERIMENT 1, read-out: Kd) was 14.3 µM, the “Percent bound at 1.87 μM 16742 conc” value (GSK3A; EXPERIMENT 2) was 4.30% and the “Percent bound at 8.74 μM 16742 conc” value (GSK3A; EXPERIMENT 2) was 29.09%. The “Percent bound at 52 μM 16742 conc” value (GSK3A; EXPERIMENT 2) was 78.29%, the Kd (GSK3A; EXPERIMENT 2, read-out: Kd) was 18.8 µM and the Kd (GSK3A; read-out: Kd Avg) was 16.6 µM.
